Source: PMC5215849 (Antiviral research, 2016)
In brackets after ≈: the same amount, converted by molar mass. Where two headings read alike, the source gives them in different places.

Legend:
[1] = system: ZIKV PRVABC-59; experiment: CPE reduction assay, ZIKV Puerto Rican PRVABC-59; assay type: cell-based; details: Zika virus
[2] = system: ZIKV P 6-740; experiment: CPE reduction assay, ZIKV Malaysian P 6-740; assay type: cell-based; details: Zika virus
[3] = system: ZIKV MR-766; experiment: CPE reduction assay, ZIKV Ugandan MR-766; assay type: cell-based; details: Zika virus
[4] = system: ZIKV (P 6-740); assay type: in vivo, AG129 mice; details: for Mean weight change from days 7 to 13: vehicle −3.1 ± 2.4 g, p<0.001
[5] = system: ZIKV (P 6-740); experiment: Re-challenge of surviving BCX4430-treated AG129 mice with ZIKV; assay type: in vivo; details: BCX4430-treated mice (300 mg/kg/d) that survived initial ZIKV challenge
[6] = system: ZIKV (P 6-740); assay type: in vivo, AG129 mice
[7] = system: ZIKV MR-766; experiment: Virus yield reduction; details: Zika virus
[8] = system: ZIKV Malaysian P 6-740; experiment: Virus yield reduction
[9] = system: ZIKV P 6-740; experiment: Virus yield reduction; details: Zika virus
[10] = system: ZIKV PRVABC-59; experiment: Virus yield reduction; details: Zika virus
[11] = system: ZIKV; experiment: Virus yield reduction concentration-response; assay type: cell-based, Zika virus; details: single test
[12] = Huh-7, read-out: CPE red. assay EC50
[13] = RD, read-out: CPE red. assay EC50
[14] = Vero 76, read-out: CPE red. assay EC50
[15] = 300 mg/kg/d bid for 7 days beginning 3 dpi
[16] = Huh-7, read-out: VYR assay EC90
[17] = Vero 76, read-out: VYR assay EC90

Row | Structure (SMILES) | EC50 [1, 12] | EC50 [1, 13] | EC50 [1, 14] | EC50 [2, 12] | EC50 [3, 12] | EC50 [3, 13] | EC50 [3, 14] | selectivity ratio ([8]; African green monkey) | selectivity ratio ([8]; human) | EC90 [10, 16] | EC90 ([10]; RD, read-out: VYR assay EC90) | EC90 [10, 17] | further results
1 | Nc1ncnc2c([C@@H]3N[C@H](CO)[C@@H](O)[C@H]3O)c[nH]c12 [BCX4430] | 4.7 ± 0.6 µg/mL (≈ 17.7 µM) | 4.7 ± 2.2 µg/mL (≈ 17.7 µM) | 3.8 ± 2.5 µg/mL (≈ 14.3 µM) | 5.5 ± 0.1 µg/mL (≈ 20.7 µM) | 5.7 ± 0.9 µg/mL (≈ 21.5 µM) | 4.4 ± 1.3 µg/mL (≈ 16.6 µM) | 11.7 ± 4.7 µg/mL (≈ 44.1 µM) | 7.3 | 20.5 | 6.7 ± 1.2 µg/mL (≈ 25.3 µM) | 10 ± 2.2 µg/mL (≈ 37.7 µM) | 18.2 ± 2.7 µg/mL (≈ 68.6 µM) | EC50 [2, 14]: 11.5 ± 4.4 µg/mL (≈ 43.4 µM); Mean weight change from days 7 to 13 ([4]; 150 mg/kg/d): -0.3 ± 0.8 g; Weight between 0 and 19 dpi ([4]; 300 mg/kg/d, similar to sham infected animals treated with the same dose): did not decline substantially; Mean weight change from days 7 to 13 ([4]; 300 mg/kg/d): +0.2 ± 0.5 g; Viral RNA level in pooled serum on day 5 (qRT-PCR) ([4]; either dose of BCX4430 (300 or 150 mg/kg/d)): significant reduction in viremia; Neutralizing antibody titers in serum just prior to re-challenge [5]: 4-5 log10 PRNT50; Protection from weight loss between 7 and 13 dpi ([6]; 300 mg/kg/d beginning 1, 3 or 5 dpi, vs vehicle p<0.001): Significant protection from weight loss; Viral RNA levels in serum on 5 dpi ([6]; 300 mg/kg/d beginning 1 or 3 dpi): not significantly decreased; Median survival ([6]; 300 mg/kg/d bid for 7 days beginning 1 dpi): > 28 days; Median survival [6, 15]: 19.5 days; Survivors [6, 15]: only a single mouse survived; Median survival ([6]; 300 mg/kg/d bid for 7 days beginning 5 dpi): 18 days; Median survival ([6]; 300 mg/kg/d bid for 7 days beginning 7 dpi): 17 days; EC90 [7, 16]: 6.4 µg/mL (≈ 24.1 µM); EC90 ([7]; RD, read-out: VYR assay EC90): 5.4 ± 1.1 µg/mL (≈ 20.4 µM); EC90 [7, 17]: 8.7 µg/mL (≈ 32.8 µM); EC90 [9, 16]: 4.9 ± 0.9 µg/mL (≈ 18.5 µM); EC90 [9, 17]: 13.8 ± 3.7 µg/mL (≈ 52 µM)
2 | NC(=O)c1ncn([C@@H]2O[C@H](CO)[C@@H](O)[C@H]2O)n1 [Ribavirin, reference compound] | 3.8 ± 1.6 µg/mL (≈ 15.6 µM) | 10 ± 6 µg/mL (≈ 40.9 µM) | 23 ± 16.8 µg/mL (≈ 94.2 µM) | 7.2 ± 2.8 µg/mL (≈ 29.5 µM) | 8.9 ± 7.9 µg/mL (≈ 36.4 µM) | 9.3 ± 5.2 µg/mL (≈ 38.1 µM) | 85 ± 77.9 µg/mL (≈ 348 µM) | 1.6 | 24.5 | 10.4 ± 0.8 µg/mL (≈ 42.6 µM) | 46.3 ± 8.6 µg/mL (≈ 190 µM) | 281 ± 108 µg/mL (≈ 1150 µM) | Activity in virus yield reduction assay ([11]; Vero76 cells (Figure 1A)): not active; Activity in virus yield reduction assay ([11]; human cell lines Huh-7 and RD (Figures 1B and C)): confirmed the antiviral activity; Viral RNA level in pooled serum on day 5 (qRT-PCR) ([4]; ribavirin i.p. bid 75 or 50 mg/kg/d): did not improve viral RNA levels; Outcome (survival) ([4]; ribavirin i.p. bid 75 or 50 mg/kg/d for 8 days): did not improve outcomes; Protection against weight loss ([4]; ribavirin i.p. bid 75 or 50 mg/kg/d, days 7 to 13): did not protect against weight loss
